Assay: Formation of clear nanoemulsion formulation with substituted hydrophobic phase ingredient
Format: physicochemical
Details: used as hydrophobic phase ingredient substituted into the examples; failures generally began cloudy and separated into two phases, primarily within 24 hours

For CCCCC(CC)COC(=O)c1ccccc1 (stereo not shown) [ethylhexyl benzoate], which “forms successful nanoemulsion / clear formulation” value is on record?
The value was “did not form successful nanoemulsion formulations”.

With CCCCCCCCCCCCCCCCOC(=O)CCCCCCC [cetyl octanoate] as the molecule, how does the “forms successful nanoemulsion / clear formulation” value read?
Its value is “did not form successful nanoemulsion formulations”.

For C[Si]1(C)O[Si](C)(C)O[Si](C)(C)O[Si](C)(C)O[Si](C)(C)O1 [cycopentasiloxane], which “forms successful nanoemulsion / clear formulation” value is on record?
Its value is “did not form successful nanoemulsion formulations”.

For CC(C)=CCC/C(C)=C/CC/C(C)=C/CC/C=C(\C)CC/C=C(\C)CCC=C(C)C [Squalene], which “forms successful nanoemulsion / clear formulation” value is on record?
The value was “did form clear formulations”.

With CCCCCCCCCCCCCCCC(=O)OC(C)C [isopropyl palmitate] as the molecule, how does the “forms successful nanoemulsion / clear formulation” value read?
Its value is “did not form successful nanoemulsion formulations”.

With CCCCC/C=C\C/C=C\CCCCCCCC(=O)Oc1c(C)c(C)c2c(c1C)CC[C@@](C)(CCC[C@H](C)CCC[C@H](C)CCCC(C)C)O2 [tocopheryl linoleate] as the molecule, how does the “forms successful nanoemulsion / clear formulation” value read?
Its value is “did not form successful nanoemulsion formulations”.

Which “forms successful nanoemulsion / clear formulation” value does the source give for CCCCCCCCCCCCCCCCCC(=O)OCCCCCCCC [octyl stearate] here?
Its value is “did not form successful nanoemulsion formulations”.

— patent US20180289809A1, “FORMULATIONS OF HYDROPHILIC COMPOUNDS” (BCS Business Consulting Services Pte Ltd., priority 2015, published 2018)
